Data reported in patent US9469652B2, “ERK inhibitors” (Eli Lilly and Company, priority 2014, dated 2016).

Columns and labels:
[1] = test system: RSK1 phosphorylation in HCT116 tumor xenograft; experiment: In Vivo Target Inhibition (IVTI) Assay (pRSK1 ELISA Assay); design: species or system female athymic nude mice; conditions: oral dosing
Method: The purpose of this assay is to measure the ability of a test compound to inhibit ERK1/2 substrate phosphorylation in an animal model Implant female athymic nude mice (22-25 g) from Harlan Laboratories with 5×10e^6 HCT116 colorectal cancer cells (ATCC, #CCL-247) subcutaneously in the right flank region in 200 μL of 1:1 Hank's Balanced Salt Solution (HBSS)+Matrigel solution. Measure tumor growth and body weight twice per week beginning the seventh day after the implantation. When tumor sizes reach 300-500 mm^3, randomize animals and group into groups of five animals. […]
Pulverize tumors in liquid nitrogen and lyse in 1× lysis buffer (MSD, #R60TX-3) containing 1× halt protease & phosphatase inhibitor cocktail (Thermo Scientific, #0861281), 1 mM phenylmethanesulfonyl fluoride (PMSF) (Sigma, #93482-50ML-F) and 1 μM sodium metavanadate (Sigma, #590088) using Matrix D beads (MP Biomedical, #6913-500) in a FastPrep-24™ Cell Disrupter machine (MP Biomedical) in a cold room (4° C.). […] Cool plate to room temperature and measure the absorbance at or near 562 nm on a plate reader (Envision plate reader from Perkin Elmer). Subtract the average 562 nm absorbance measurement of the blank standard replicates from the 562 nm measurements of all other individual standard and unknown (cell or tumor lysate) sample replicates. […]

[2] = molecular target: T1, ERK1 (Homo sapiens, UniProt P27361); experiment: ERK1 Kinase Assay (TR-FRET); type: biochemical; conditions: Abs_IC50, ATP 10 μM, GFP-ATF2 substrate; ±0.20, n=7
T1 construct: purchased Invitrogen PR5254B
T1 sequence (P27361 whole entry): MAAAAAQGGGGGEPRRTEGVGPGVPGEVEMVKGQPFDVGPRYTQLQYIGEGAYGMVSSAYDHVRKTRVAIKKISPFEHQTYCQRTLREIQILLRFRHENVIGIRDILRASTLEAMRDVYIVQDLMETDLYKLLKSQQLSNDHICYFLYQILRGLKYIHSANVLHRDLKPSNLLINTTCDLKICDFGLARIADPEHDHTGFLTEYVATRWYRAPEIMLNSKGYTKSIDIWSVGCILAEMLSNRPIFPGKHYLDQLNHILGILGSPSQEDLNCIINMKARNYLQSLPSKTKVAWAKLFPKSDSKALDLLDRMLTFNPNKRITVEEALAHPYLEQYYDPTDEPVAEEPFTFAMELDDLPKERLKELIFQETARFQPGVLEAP
Method: The purpose of this assay is to measure the ability of compounds to inhibit ERK1 kinase activity. Perform the ERK1 kinase assay in vitro using a TR-FRET assay. Start reactions (12.5 μL) by adding 5 μL of ERK1 enzyme (Invitrogen, #PR5254B, final concentration 100 ng/mL) plus substrate GFP-ATF2 (Invitrogen, #PV4445, final concentration 0.2 μM), 5 μL of ATP solution (Invitrogen, #PV3227, final concentration 10 μM) prepared in kinase buffer (50 mM Hepes pH 7.4, 5 mM MgCl2, 0.1 mM EGTA, 0.01% Triton X-100, 1 mM DTT) and 2.5 μL of testing compounds in DMSO solution (final 4%, v/v) in a 384-well PROXIPLATE™ (Perkin Elmer, #GRN6260). Incubate the reaction mixture at room temperature for 60 minutes. Stop the reaction by addition of 12.5 μL of stop buffer (10 mM EDTA, 2 nM Tb-anti-pATF2 (pThr71) antibody, Invitrogen, #PV4448) in TR-FRET dilution buffer (Invitrogen, #PV3574). Incubate the plates at room temperature for an additional 60 minutes and read on an ENVISION® (PerkinElmer) plate reader at the excitation wavelength 340 nm Calculate the TR-FRET ratio by dividing the GFP acceptor emission signal (at 520 nm) by the Tb donor emission signal (at 495 nm). Calculate percent inhibition using compound treated wells relative to on-plate Max (DMSO control) and Min (No enzyme added) control wells TR-FRET ratio data {% inhibition=100−[(test compound−median Min)/(median Max−median Min)×100]}. […]

**Q.** For Cn1nccc1Nc1nccc(-c2cc3c(s2)C(C)(C)N(CCN2CCOCC2)C3=O)n1 [Example 1, 6,6-Dimethyl-2-{2-[(1-methyl-1H-pyrazol-5-yl)amino]pyrimidin-4-yl}-5-[2-(morpholin-4-yl)ethyl]-5,6-dihydro-4H-thieno[2,3-c]pyrrol-4-one], which “TED50, pRSK1 inhibition in tumor” value [1] is on record?
**A.** 16 mg/kg

**Q.** What about the IC50 [2] of the same molecule?
**A.** 4.86 nM
